Measurements: patent publication US10857113B2, “Bezafibrate for the treatment of cancer” (Cipla Limited, priority 2016, dated 2020)

Tested on: A498 cells
Assay: In vivo animal efficacy study, subcutaneous tumor fragment xenograft
Set-up: species or system female athymic nude mice
Conditions: sunitinib 20 mg/kg, bezafibrate 150 mg/kg, p.o. q.d. × 21
Method: Healthy 10 female athymic nude mice were recruited for the donor cell inoculation. Animals were subcutaneously injected at flank region with 10 million A498 cells suspended in 200 μl of media and matrigel. Animals were monitored for solid tumor growth. […] Tumors were fragmented in to ˜30 mg size. […] [table] The tumor sizes were measured weekly twice from the date of tumor appearance till the end of the experiment. Tumor size was measured by digital vernier caliper (MITUTOYO) by measuring length (L=longest axis) and width (W=shortest axis). Tumor Volume (V) was calculated using formula: […] Mean tumor volume and % tumor growth inhibition (% TGI) were then calculated (SEM=standard error of mean).

## CCN(CC)CCNC(=O)c1c(C)[nH]c(/C=C2\C(=O)Nc3ccc(F)cc32)c1C [Sunitinib]
Day 1
  Tumor Growth Inhibition: 1.47%
  Tumor Volume, Mean: 145.40 mm^3
Day 6
  Tumor Growth Inhibition: 47.31%
  Tumor Volume, Mean: 174.90 mm^3
Day 9
  Tumor Growth Inhibition: 43.52%
  Tumor Volume, Mean: 261.95 mm^3
Day 13
  Tumor Growth Inhibition: 44.80%
  Tumor Volume, Mean: 340.62 mm^3
Day 16
  Tumor Growth Inhibition: 53.39%
  Tumor Volume, Mean: 448.05 mm^3
Day 20
  Tumor Growth Inhibition: 50.78%
  Tumor Volume, Mean: 630.25 mm^3
